In the supplement of paper PMC10307832:

How the values were obtained:
Assay in all cases: relative viability (nuclei count vs DMSO), 5 days (fraction); higher = more cells survive
PC-14 = system: PC-14
Summary of the method: (§1)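 Cells from lung cancer lines were seeded into 1536-well plates and, one day later, dosed by pin tool. Treatments were either a single drug or a fixed dose of an anchor drug with five library-drug doses (not always all listed) in √10 steps. After 5 days, nuclei were stained in a one-step fixation (final 0.05% Triton X-100, 1% formaldehyde, 1 ug/ml Hoechst) and counted on 4× images, and relative viability is the treated-to-vehicle nuclei ratio, as the median of duplicate plates.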

NCI-H838 = system: NCI-H838
Summary of the method: as §1

HCC-15 = system: HCC-15
Summary of the method: as §1

UMC-11 = system: UMC-11
Summary of the method: as §1

NCI-H1793 = system: NCI-H1793
Summary of the method: as §1

NCI-H1355 = system: NCI-H1355
Summary of the method: as §1

NCI-H2342 = system: NCI-H2342
Summary of the method: as §1

NCI-H2170 = system: NCI-H2170
Summary of the method: as §1

NCI-H647 = system: NCI-H647
Summary of the method: as §1

COR-L23 = system: COR-L23
Summary of the method: as §1

SK-MES-1 = system: SK-MES-1
Summary of the method: as §1

COR-L 105 = system: COR-L 105
Summary of the method: as §1

NCI-H2009 = system: NCI-H2009
Summary of the method: as §1

NCI-H358 = system: NCI-H358
Summary of the method: as §1

NCI-H1734 = system: NCI-H1734
Summary of the method: as §1

HOP-62 = system: HOP-62
Summary of the method: as §1

NCI-H1755 = system: NCI-H1755
Summary of the method: as §1

NCI-H1395 = system: NCI-H1395
Summary of the method: as §1

EKVX = system: EKVX
Summary of the method: as §1

NCI-H1993 = system: NCI-H1993
Summary of the method: as §1

NCI-H2347 = system: NCI-H2347
Summary of the method: as §1

HARA = system: HARA
Summary of the method: as §1

NC(=O)Nc1cc(-c2cccc(F)c2)sc1C(=O)N[C@H]1CCCNC1 [AZD7762] + Nc1ncn([C@H]2C[C@H](O)[C@@H](CO)O2)c(=O)n1 [Decitabine] (partner 2 µM)
relative viability (PC-14; first compound 0.01 µM): 0.234 | relative viability (PC-14; first compound 0.03162 µM): 0.225 | relative viability (PC-14; first compound 0.1 µM): 0.166 | relative viability (PC-14; first compound 0.3162 µM): 0.137 | relative viability (PC-14; first compound 1 µM): 0.0898 | relative viability (NCI-H838; first compound 0.01 µM): 0.661 | relative viability (NCI-H838; first compound 0.03162 µM): 0.568 | relative viability (NCI-H838; first compound 0.1 µM): 0.531 | relative viability (NCI-H838; first compound 0.3162 µM): 0.454 | relative viability (NCI-H838; first compound 1 µM): 0.283 | relative viability (HCC-15; first compound 0.01 µM): 0.565 | relative viability (HCC-15; first compound 0.03162 µM): 0.587 | relative viability (HCC-15; first compound 0.1 µM): 0.622 | relative viability (HCC-15; first compound 0.3162 µM): 0.553 | relative viability (HCC-15; first compound 1 µM): 0.589 | relative viability (UMC-11; first compound 0.01 µM): 0.728 | relative viability (UMC-11; first compound 0.03162 µM): 0.591 | relative viability (UMC-11; first compound 0.1 µM): 0.598 | relative viability (UMC-11; first compound 0.3162 µM): 0.479 | relative viability (UMC-11; first compound 1 µM): 0.305 | relative viability (NCI-H1793; first compound 0.01 µM): 0.437 | relative viability (NCI-H1793; first compound 0.03162 µM): 0.551 | relative viability (NCI-H1793; first compound 0.1 µM): 0.689 | relative viability (NCI-H1793; first compound 0.3162 µM): 1.28 | relative viability (NCI-H1793; first compound 1 µM): 0.39 | relative viability (NCI-H1355; first compound 0.01 µM): 0.352 | relative viability (NCI-H1355; first compound 0.03162 µM): 0.385 | relative viability (NCI-H1355; first compound 0.1 µM): 0.317 | relative viability (NCI-H1355; first compound 0.3162 µM): 0.407 | relative viability (NCI-H1355; first compound 1 µM): 0.475 | relative viability (NCI-H2342; first compound 0.01 µM): 0.68 | relative viability (NCI-H2342; first compound 0.03162 µM): 0.731 | relative viability (NCI-H2342; first compound 0.1 µM): 0.805 | relative viability (NCI-H2342; first compound 0.3162 µM): 0.821 | relative viability (NCI-H2342; first compound 1 µM): 0.854 | relative viability (NCI-H2170; first compound 0.01 µM): 0.465 | relative viability (NCI-H2170; first compound 0.03162 µM): 0.544 | relative viability (NCI-H2170; first compound 0.1 µM): 0.497 | relative viability (NCI-H2170; first compound 0.3162 µM): 0.581 | relative viability (NCI-H2170; first compound 1 µM): 0.436 | relative viability (NCI-H647; first compound 0.01 µM): 0.475 | relative viability (NCI-H647; first compound 0.03162 µM): 0.501 | relative viability (NCI-H647; first compound 0.1 µM): 0.441 | relative viability (NCI-H647; first compound 0.3162 µM): 0.356 | relative viability (NCI-H647; first compound 1 µM): 0.156 | relative viability (COR-L23; first compound 0.01 µM): 0.485 | relative viability (COR-L23; first compound 0.03162 µM): 0.535 | relative viability (COR-L23; first compound 0.1 µM): 0.563 | relative viability (COR-L23; first compound 0.3162 µM): 0.35 | relative viability (COR-L23; first compound 1 µM): 0.166 | relative viability (SK-MES-1; first compound 0.01 µM): 0.347 | relative viability (SK-MES-1; first compound 0.03162 µM): 0.394 | relative viability (SK-MES-1; first compound 0.1 µM): 0.342 | relative viability (SK-MES-1; first compound 0.3162 µM): 0.289 | relative viability (SK-MES-1; first compound 1 µM): 0.163 | relative viability (COR-L 105; first compound 0.01 µM): 0.711 | relative viability (COR-L 105; first compound 0.03162 µM): 0.664 | relative viability (COR-L 105; first compound 0.1 µM): 0.643 | relative viability (COR-L 105; first compound 0.3162 µM): 0.55 | relative viability (COR-L 105; first compound 1 µM): 0.508 | relative viability (NCI-H2009; first compound 0.01 µM): 0.468 | relative viability (NCI-H2009; first compound 0.03162 µM): 0.417 | relative viability (NCI-H2009; first compound 0.1 µM): 0.373 | relative viability (NCI-H2009; first compound 0.3162 µM): 0.378 | relative viability (NCI-H2009; first compound 1 µM): 0.3 | relative viability (NCI-H358; first compound 0.01 µM): 0.229 | relative viability (NCI-H358; first compound 0.03162 µM): 0.311 | relative viability (NCI-H358; first compound 0.1 µM): 0.38 | relative viability (NCI-H358; first compound 0.3162 µM): 0.343 | relative viability (NCI-H358; first compound 1 µM): 0.224 | relative viability (NCI-H1734; first compound 0.01 µM): 0.567 | relative viability (NCI-H1734; first compound 0.03162 µM): 0.581 | relative viability (NCI-H1734; first compound 0.1 µM): 0.51 | relative viability (NCI-H1734; first compound 0.3162 µM): 0.517 | relative viability (NCI-H1734; first compound 1 µM): 0.39 | relative viability (HOP-62; first compound 0.01 µM): 0.216 | relative viability (HOP-62; first compound 0.03162 µM): 0.23 | relative viability (HOP-62; first compound 0.1 µM): 0.248 | relative viability (HOP-62; first compound 0.3162 µM): 0.284 | relative viability (HOP-62; first compound 1 µM): 0.299 | relative viability (NCI-H1755; first compound 0.01 µM): 0.76 | relative viability (NCI-H1755; first compound 0.03162 µM): 0.839 | relative viability (NCI-H1755; first compound 0.1 µM): 0.847 | relative viability (NCI-H1755; first compound 0.3162 µM): 0.922 | relative viability (NCI-H1755; first compound 1 µM): 0.703 | relative viability (NCI-H1395; first compound 0.01 µM): 0.866 | relative viability (NCI-H1395; first compound 0.03162 µM): 0.727 | relative viability (NCI-H1395; first compound 0.1 µM): 0.65 | relative viability (NCI-H1395; first compound 0.3162 µM): 0.476 | relative viability (NCI-H1395; first compound 1 µM): 0.354 | relative viability (EKVX; first compound 0.01 µM): 0.456 | relative viability (EKVX; first compound 0.03162 µM): 0.388 | relative viability (EKVX; first compound 0.1 µM): 0.326 | relative viability (EKVX; first compound 0.3162 µM): 0.395 | relative viability (EKVX; first compound 1 µM): 0.37 | relative viability (NCI-H1993; first compound 0.01 µM): 0.626 | relative viability (NCI-H1993; first compound 0.03162 µM): 0.606 | relative viability (NCI-H1993; first compound 0.1 µM): 0.657 | relative viability (NCI-H1993; first compound 0.3162 µM): 0.597 | relative viability (NCI-H1993; first compound 1 µM): 0.638 | relative viability (NCI-H2347; first compound 0.01 µM): 0.558 | relative viability (NCI-H2347; first compound 0.03162 µM): 0.656 | relative viability (NCI-H2347; first compound 0.1 µM): 0.725 | relative viability (NCI-H2347; first compound 0.3162 µM): 0.79 | relative viability (NCI-H2347; first compound 1 µM): 0.752 | relative viability (HARA; first compound 0.01 µM): 0.633 | relative viability (HARA; first compound 0.03162 µM): 0.507 | relative viability (HARA; first compound 0.1 µM): 0.66 | relative viability (HARA; first compound 0.3162 µM): 0.539 | relative viability (HARA; first compound 1 µM): 0.211
